According to ChEMBL document CHEMBL1201862, “PubChem BioAssay data set” (2004):
Calls of active or inactive are those of the source.

How the values were obtained:
Aminopeptidase N = target: T1, Aminopeptidase N (Plasmodium falciparum FcB1/Columbia, UniProt O96935); test: P. falciparum M1AAP inhibitors, biochemical, fluorogenic H-Leu-NHMec substrate, 1536-well (AID 1445); design: species or system Plasmodium falciparum 3D7, 3D7
T1 sequence (O96935 whole entry): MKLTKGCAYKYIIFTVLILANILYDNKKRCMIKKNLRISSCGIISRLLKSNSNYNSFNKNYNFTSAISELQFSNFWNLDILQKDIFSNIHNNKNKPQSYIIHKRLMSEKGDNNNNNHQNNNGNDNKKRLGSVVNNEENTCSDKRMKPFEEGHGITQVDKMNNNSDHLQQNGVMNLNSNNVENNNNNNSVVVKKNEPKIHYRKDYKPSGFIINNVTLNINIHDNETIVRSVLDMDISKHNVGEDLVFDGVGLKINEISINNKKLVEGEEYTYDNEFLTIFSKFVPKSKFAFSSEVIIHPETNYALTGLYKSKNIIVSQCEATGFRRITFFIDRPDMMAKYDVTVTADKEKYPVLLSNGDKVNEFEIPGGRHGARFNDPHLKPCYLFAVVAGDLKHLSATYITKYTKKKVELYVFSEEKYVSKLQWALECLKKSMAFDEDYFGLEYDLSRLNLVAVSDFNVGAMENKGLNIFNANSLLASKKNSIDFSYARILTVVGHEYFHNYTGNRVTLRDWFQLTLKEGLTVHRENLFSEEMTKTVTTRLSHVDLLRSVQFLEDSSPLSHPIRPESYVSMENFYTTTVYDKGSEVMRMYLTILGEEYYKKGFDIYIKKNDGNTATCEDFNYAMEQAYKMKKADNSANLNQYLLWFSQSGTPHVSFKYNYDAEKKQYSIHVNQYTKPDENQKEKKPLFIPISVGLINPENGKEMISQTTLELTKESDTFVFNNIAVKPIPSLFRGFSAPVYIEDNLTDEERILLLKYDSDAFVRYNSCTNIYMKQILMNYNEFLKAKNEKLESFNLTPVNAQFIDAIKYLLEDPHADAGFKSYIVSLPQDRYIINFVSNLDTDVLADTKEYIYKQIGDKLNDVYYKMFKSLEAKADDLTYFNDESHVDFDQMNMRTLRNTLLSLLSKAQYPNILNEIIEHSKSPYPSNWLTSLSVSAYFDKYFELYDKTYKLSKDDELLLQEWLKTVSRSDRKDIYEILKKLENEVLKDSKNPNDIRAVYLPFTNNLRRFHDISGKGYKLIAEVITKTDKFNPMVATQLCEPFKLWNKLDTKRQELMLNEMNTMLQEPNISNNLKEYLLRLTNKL

[1] = target: T2, High affinity choline transporter 1 (Homo sapiens, UniProt Q9GZV3); test: CHT inhibitors, dose response, cell-based, 5-point CRC, membrane potential dye (AID 504840); type: functional
T2 sequence (Q9GZV3 whole entry): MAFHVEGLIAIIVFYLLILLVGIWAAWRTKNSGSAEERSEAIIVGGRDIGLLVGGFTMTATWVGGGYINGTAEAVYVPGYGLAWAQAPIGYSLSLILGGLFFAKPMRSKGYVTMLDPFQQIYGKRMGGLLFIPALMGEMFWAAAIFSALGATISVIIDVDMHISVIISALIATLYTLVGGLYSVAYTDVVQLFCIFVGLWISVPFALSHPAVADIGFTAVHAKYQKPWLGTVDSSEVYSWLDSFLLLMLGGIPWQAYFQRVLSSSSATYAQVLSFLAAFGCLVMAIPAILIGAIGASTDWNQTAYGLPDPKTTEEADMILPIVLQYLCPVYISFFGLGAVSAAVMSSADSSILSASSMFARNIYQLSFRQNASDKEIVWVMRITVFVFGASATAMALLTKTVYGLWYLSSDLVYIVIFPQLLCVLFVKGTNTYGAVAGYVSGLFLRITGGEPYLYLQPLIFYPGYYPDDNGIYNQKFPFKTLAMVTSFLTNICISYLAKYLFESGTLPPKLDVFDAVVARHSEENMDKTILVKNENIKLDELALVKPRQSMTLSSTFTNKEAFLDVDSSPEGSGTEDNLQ

[2] = target: T3, Ubiquitin-conjugating enzyme E2 N (Homo sapiens, UniProt P61088); type: functional;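 further: Dose-response confirmation in a TR-FRET assay detecting UBC13-driven polyubiquitin chain formation, inhibition measured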
T3 sequence (P61088 whole entry): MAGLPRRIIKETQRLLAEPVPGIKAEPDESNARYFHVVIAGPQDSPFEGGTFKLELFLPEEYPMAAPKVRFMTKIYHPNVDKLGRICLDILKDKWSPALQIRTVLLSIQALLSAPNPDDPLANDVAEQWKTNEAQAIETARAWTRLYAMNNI

[3] = ZM109 Env clade C HIV-1 fusion inhibitors, dose response, HeLa effector, CEM target cells, luciferase, cherry-pick (AID 652058); type: functional, cell-based
[4] = inhibitors of HIV Env-driven cell fusion, dose response, cherry-pick (AID 652057); type: functional, cell-based
[5] = off-target signal loss in HeLa-CEM21 co-culture – HeLa F-luc CTL cells, cherry-picked, counter-screen for HIV-1 Env fusion inhibitor project, dose response (AID 652040); type: functional, cell-based;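 further: potency for signal decrease marking cytotoxic or nonspecific inhibition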
Nonstructural protein 1 = Nonstructural protein 1 (Influenza A virus, UniProt Q194T2); type: functional, Influenza A virus (A/California/07/2009(H1N1))
Sequence of Nonstructural protein 1 (Q194T2 whole entry): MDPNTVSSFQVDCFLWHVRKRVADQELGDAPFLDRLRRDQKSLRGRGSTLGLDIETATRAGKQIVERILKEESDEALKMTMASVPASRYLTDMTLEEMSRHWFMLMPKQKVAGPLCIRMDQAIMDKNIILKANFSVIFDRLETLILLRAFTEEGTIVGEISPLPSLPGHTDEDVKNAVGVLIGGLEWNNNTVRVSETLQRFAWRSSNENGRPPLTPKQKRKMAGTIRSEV

H9c2 = test: cells; type: functional, cell-based; conditions: Rattus norvegicus, H9c2, Myocardium;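 further: confirmatory concentration-response retest of ultra-high-throughput screening hits for modulation of myocardial damage; cell death induced by hydrogen peroxide oxidative stress; compound pretreatment for 60 min then peroxide exposure for 2 h; potency is for protecting the cells against peroxide damage rather than for killing them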
[6] = target: T4, Small ubiquitin-related modifier 1 (Homo sapiens, UniProt P63165); test: inhibitors of SUMO1 peptide binding, dose response, biochemical, fluorescence polarization, uHTS hits (AID 624382); type: functional; conditions: read-out: IC50_Mean
T4 sequence (P63165 whole entry): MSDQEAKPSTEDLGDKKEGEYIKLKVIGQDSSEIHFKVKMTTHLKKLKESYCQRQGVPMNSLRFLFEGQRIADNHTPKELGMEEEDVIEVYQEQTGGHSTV

[7] = target: T4, Small ubiquitin-related modifier 1; test: inhibitors of SUMO1 partner interactions, dose response, biochemical, FRET (AID 624383); type: functional; conditions: read-out: IC50_Mean
[8] = inhibitors of clade B AD8 Env fusion, dose response, cell-based, cherry-pick (AID 652062); type: functional;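 further: luciferase signal from cell-cell fusion driven by HIV-1 clade B AD8 Env; potency is for inhibitors of fusion seen as a drop in luminescence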
[9] = target: Heat shock protein HSP 90-alpha (Homo sapiens, UniProt P07900); type: functional, organism-based
SN12K1 = test: cells; type: functional; conditions: Homo sapiens
[10] = target: Luciferin 4-monooxygenase (Photinus pyralis, UniProt P08659); test: firefly luciferase enzyme inhibitors, dose response, biochemical, luminescence (AID 1891)
Sequence of Luciferin 4-monooxygenase (P08659 whole entry): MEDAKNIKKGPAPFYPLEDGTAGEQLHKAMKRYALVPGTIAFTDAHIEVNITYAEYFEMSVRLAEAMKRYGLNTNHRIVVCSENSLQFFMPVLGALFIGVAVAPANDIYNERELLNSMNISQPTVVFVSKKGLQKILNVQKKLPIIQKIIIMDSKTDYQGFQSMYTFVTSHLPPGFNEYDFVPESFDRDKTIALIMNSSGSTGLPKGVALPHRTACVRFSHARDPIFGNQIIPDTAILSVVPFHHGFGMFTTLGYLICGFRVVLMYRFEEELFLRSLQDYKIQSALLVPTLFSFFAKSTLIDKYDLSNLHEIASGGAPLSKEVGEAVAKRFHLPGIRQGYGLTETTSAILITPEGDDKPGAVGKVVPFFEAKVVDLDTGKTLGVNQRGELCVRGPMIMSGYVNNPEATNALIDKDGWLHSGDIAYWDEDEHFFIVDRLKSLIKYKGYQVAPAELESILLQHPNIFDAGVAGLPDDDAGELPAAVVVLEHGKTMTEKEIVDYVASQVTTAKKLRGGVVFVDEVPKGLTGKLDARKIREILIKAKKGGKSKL

[11] = Luminescence Cell-Based Dose Confirmation HTS to Identify Inhibitors of Platelet Dense Granule Release. [Related pubchem assays: 1663 (Primary HTS), 1678 (Summary of Project)]; type: functional
Genome polyprotein = Genome polyprotein (dengue virus type 2, UniProt P29990); test: Dengue-2 NS5 methyltransferase inhibitors, primary screen, biochemical, confirmation dose response (AID 588689); type: functional
Sequence of Genome polyprotein (P29990 2492-3391 limits assumed): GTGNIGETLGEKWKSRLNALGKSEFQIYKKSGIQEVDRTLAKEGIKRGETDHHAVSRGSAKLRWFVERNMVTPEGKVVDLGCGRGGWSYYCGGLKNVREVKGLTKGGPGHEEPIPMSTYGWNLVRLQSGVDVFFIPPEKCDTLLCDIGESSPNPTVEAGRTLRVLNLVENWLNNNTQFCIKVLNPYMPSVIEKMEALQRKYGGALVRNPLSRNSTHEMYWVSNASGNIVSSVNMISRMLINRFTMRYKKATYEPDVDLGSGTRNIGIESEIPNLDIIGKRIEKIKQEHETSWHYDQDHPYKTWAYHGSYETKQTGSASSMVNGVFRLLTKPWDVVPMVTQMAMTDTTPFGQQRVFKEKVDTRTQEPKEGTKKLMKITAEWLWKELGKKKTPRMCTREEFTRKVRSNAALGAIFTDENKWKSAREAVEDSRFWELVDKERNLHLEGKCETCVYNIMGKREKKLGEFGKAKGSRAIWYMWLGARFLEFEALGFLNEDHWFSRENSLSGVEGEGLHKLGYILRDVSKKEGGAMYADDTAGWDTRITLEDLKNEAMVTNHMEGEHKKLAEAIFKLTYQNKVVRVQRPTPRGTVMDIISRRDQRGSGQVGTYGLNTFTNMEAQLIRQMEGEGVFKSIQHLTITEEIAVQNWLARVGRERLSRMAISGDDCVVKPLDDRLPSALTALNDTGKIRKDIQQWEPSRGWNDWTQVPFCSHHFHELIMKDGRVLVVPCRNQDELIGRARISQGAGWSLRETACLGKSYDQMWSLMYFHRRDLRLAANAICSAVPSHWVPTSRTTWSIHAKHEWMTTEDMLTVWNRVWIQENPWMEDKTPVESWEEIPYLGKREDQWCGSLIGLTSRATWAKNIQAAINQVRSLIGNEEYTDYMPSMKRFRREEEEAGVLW

[12] = microbe, parasite or virus in culture; type: functional; conditions: Mycobacterium tuberculosis
[13] = cytotoxicity toward DRD oncogenic fibroblasts, dose response, cell-based, non-viral oncogenic, luminescence (AID 1934); type: functional; conditions: Homo sapiens
[14] = test system: Streptococcus sp. 'group A'; test: growth inhibition of control SK(-) GAS strain, dose response, counter-screen for streptokinase expression inhibitor project, luminescence, kanamycin, BacTiterGlo, confirmation (AID 1900); type: functional, organism-based
BJ [15] = test: cells; type: functional, cell-based; conditions: Homo sapiens
BJ [16] = test: cytotoxicity toward BJ-TERT-LT-ST fibroblasts, dose response, cell-based, RAS-independent, luminescence (AID 1935); type: functional; conditions: Homo sapiens;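 further: BJ fibroblasts immortalized with TERT plus LT and ST oncogenes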
BJ [17] = test: cytotoxicity toward BJ-TERT fibroblasts, dose response, cell-based, RAS-independent, luminescence (AID 1933); type: functional; conditions: Homo sapiens
Streptococcus = test: Group A Streptococcus viability loss, dose response, counter-screen for streptokinase expression inhibitor project, luminescence, BacTiterGlo (AID 1915); type: functional, organism-based;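 further: potency for reduction of bacterial viability or growth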

In the case of `Cc1ccc2c(c1)c1nnc(SCC(=O)Nc3ccccc3C(F)(F)F)nc1n2CC(=O)O`, the IC50 (Aminopeptidase N) was 18.6 µM (active).
With `COc1ccc(-c2csc(Cc3nnc4n3CCCCC4)n2)cc1` the IC50 [1] was 9.12 µM (active).
In the case of `O=C(C(=O)N1CCOCC1)c1cn(Cc2ccccc2Cl)c2ccccc12`, the IC50 [2] was > 20 µM (inactive).
For `CCN(CC)S(=O)(=O)c1ccc(NC2c3ccccc3C(=O)N2Cc2ccc3c(c2)OCO3)cc1` (stereo not drawn), the AC50 [3] was 7.39 µM (active), the AC50 [4] was 1.33 µM (active) and the AC50 [5] was 3.71 µM (active).
In the case of `COc1cccc(C=NNC(=O)c2ccncc2)c1O`, the IC50 (Nonstructural protein 1) was 6.26 µM (active).
For `COc1ccccc1CCNC(=O)c1ccc(OC)c(OC2CCN(C(C)C)CC2)c1`, the IC50 [1] was 13.5 µM (active).
For `CN(C)C(=O)C1C2N=C(S)N(c3cccc(Cl)c3)C1(C)Oc1ccc(Cl)cc12` (stereo not drawn), the IC50 (H9c2) was 54.6 µM (inactive).
In the case of `O=C(O)CP(=O)(c1ccccc1)c1ccccc1`, the IC50 [6] was > 66.6 µM (inactive) and the IC50 [7] was 100 µM (inactive).
In the case of `Cc1sc2ncnc(N3CCC(C(=O)Nc4cc(S(C)(=O)=O)ccc4Cl)CC3)c2c1C`, the AC50 [8] was 12.3 µM (active), the AC50 [3] was 3.3 µM (active) and the AC50 [4] was 8.97 µM (active). For the same molecule, the AC50 [5] was 30.5 µM (active).
For `O=C(CN1CCN(c2ncc(C(F)(F)F)cc2Cl)CC1)NCCNc1ncc(C(F)(F)F)cc1Cl`, the AC50 [9] was 5.87 µM (active).
In the case of `CC1(C)C2CC[C@]3(C)[C@H](C(=O)C=C4[C@@H]5C[C@@](C)(C(=O)O)CC[C@]5(C)CC[C@]43C)[C@@]2(C)CC[C@@H]1O[C@H]1O[C@H](C(=O)O)[C@@H](O)[C@H](O)[C@H]1O[C@@H]1O[C@H](C(=O)O)[C@@H](O)[C@H](O)[C@H]1O` (stereo partly drawn), the IC50 [6] was > 66.6 µM (inactive) and the IC50 [7] was 9.45 µM (active).
With `COC(=O)C1=C(C)N(Cc2ccc(Cl)cc2)C(=S)NC1c1ccc(OC)cc1` (stereo not drawn) the AC50 [8] was 12.6 µM (active), the AC50 [3] was 5.23 µM (active) and the AC50 [4] was 3.25 µM (active). The AC50 [5] was 5.7 µM (active).
In the case of `CCn1c(=O)c(C(=O)NC(C)c2ccccc2)c(O)c2ccccc21` (stereo not drawn), the IC50 (H9c2) was 13.5 µM (active).
With `CN(C)S(=O)(=O)c1ccc(N2CCCC2)c(C(=O)NCCc2ccc(F)cc2)c1` the AC50 [8] was 6.5 µM (active), the AC50 [3] was 5.76 µM (active) and the AC50 [4] was 5.95 µM (active). The AC50 [5] was 9.35 µM (active).
In the case of `CN1C(=S)N(c2cccnc2)C(=O)/C1=C\c1ccc(N(C)C)cc1`, the IC50 (Nonstructural protein 1) was > 100 µM (active).
For `O=c1cc(O)ccn1C1C=C(CO)C(O)C1O` (stereo not drawn), the GI50 (SN12K1) was > 625 µM (inactive).
With `C=CC(=O)Nc1cccc(Oc2ccnc(Nc3ccc(N4CCN(C)CC4)cc3)n2)c1` the IC50 (Nonstructural protein 1) was 23.1 µM (active).
In the case of `O=C(NCC1CCCCC1)C1(CC2CC(c3ccc(Cl)cc3)=NO2)CCNCC1` (stereo not drawn), the IC50 [2] was > 20 µM (inactive).
In the case of `COc1ccc(CCn2c(Br)nc3c2c(=O)[nH]c(=O)n3C)cc1`, the IC50 (H9c2) was > 79 µM (inactive).
With `CCN1CCCC1CN(Cc1cc2ccc(C)cc2nc1O)C(S)=Nc1ccc(F)cc1` (stereo not drawn) the AC50 [9] was 2.64 µM (active).
For `O=C(COc1cccc2c1CCNC2=O)Nc1cccc(F)c1`, the IC50 (H9c2) was > 79 µM (inactive).
With `C/C(=N\Nc1nc(C(=O)O)cs1)c1ccccc1` the IC50 (Aminopeptidase N) was 34.2 µM (active).
For `O=C(CSc1nc2ccsc2c(=O)n1Cc1ccccc1)NCC1CCCO1` (stereo not drawn), the IC50 [2] was > 20 µM (inactive).
With `NC(=O)c1ccsc1NC(=O)c1cc(=O)c2ccccc2o1` the IC50 [6] was > 66.6 µM (inactive) and the IC50 [7] was 11.7 µM (active).
In the case of `Cc1ccc(NC(C)C(=O)N/N=C/c2c[nH]c3ccccc23)cc1` (stereo not drawn), the EC50 [10] was > 112 µM (not active) and the EC50 [11] was > 112 µM (not active).
For `CCOc1ccc(/C=C2\SC(=S)N(NS(=O)(=O)c3ccccc3)C2=O)cc1OC`, the IC50 (Genome polyprotein) was 71.2 µM (active) and the IC50 [1] was 5.37 µM (active).
For `Clc1ccc(NNc2ccnc3cc(Cl)ccc23)cc1`, the IC50 (Nonstructural protein 1) was 34.6 µM (active) and the CC50 [12] was > 40 µM (active).
For `CSc1ccccc1C(=O)Nc1nc2ccccc2[nH]1`, the EC50 [10] was > 112 µM (not active) and the EC50 [11] was > 112 µM (not active).
In the case of `COC(=O)c1ccc(C(=O)OC)c(NC(=O)COC(=O)C23CC4CC(CC(O)(C4)C2)C3)c1`, the IC50 (H9c2) was > 79 µM (inactive).
In the case of `Cc1ccc(/C=N/NC(=O)C(O)c2ccccc2)o1` (stereo not drawn), the EC50 [10] was > 112 µM (not active) and the EC50 [11] was > 112 µM (not active).
With `Cc1ccnc(NCc2c(O)ccc3ccccc23)c1` the IC50 [2] was > 20 µM (inactive).
With `CCOC(=O)C(C)Oc1ccc(C2NC(=O)NC(C)=C2C(C)=O)cc1Br` (stereo not drawn) the IC50 (H9c2) was 30.6 µM (inactive).
For `Oc1cccc2ccc(/C=C/c3ccccc3Br)nc12`, the EC50 [13] was 17.4 µM (active), the EC50 [14] was 212 nM (active) and the EC50 (BJ [15]) was 18.1 µM (active). The EC50 (BJ [16]) was 108 µM (active), the EC50 (BJ [17]) was 20 µM (active) and the AC50 [9] was 12.9 µM (active). The EC50 (Streptococcus) was 3.96 µM (active).
